# Reference: patent US20260027068A1, “METHODS OF ADM[…]-KETAMINE” (Perception Neuroscience, Inc., priority 2022, published 2026)
# Experiments:
# [1] = Diastolic blood pressure (vital signs)
# Procedure: The Investigational Medicinal Product (IMP) R(−)-ketamine hydrochloride in sterile water for intravenous injection was investigated as an […] treatment of TRD. The International Union of Pure and Applied Chemistry (IUPAC) name is of the IMP is (2R)-2-(2-chlorophenyl)-2-(methylamino)cyclohexan-1-one. Subjects received the solution at either 30 mg or 60 mg dose, or a placebo. The IMP or placebo was administered on Day 1 as a single IV infusion via an electronic infusion pump over 40 minutes. The duration of study participation for each subject was up to 29 days including a screening period, a 3-day in-clinic visit, and 2 follow-up visits. 101 subjects were enrolled in approximately 20 study centers in the EU and the US.
# Tympanic or temporal temperature, heart rate, blood pressure (SBP/DBP), respiratory rate, and SpO2 were assessed. Blood pressure and pulse measurements will be assessed with a completely automated device while the subject is supine or semi-supine. Manual techniques will be used only if an automated device is not available. Blood pressure and pulse measurements should be preceded by at least 5 minutes of rest for the subject in a quiet setting without distractions (e.g., television, cell phones). An abnormal blood pressure value at screening may be repeated once after 5 minutes of relaxation to determine the subject's eligibility. Blood pressure was recorded using the same arm and position (supine or semi-supine) throughout the study, where possible. Vital signs (to be taken before blood collection for laboratory tests) consisted of 1 pulse and 3 blood pressure measurements (3 consecutive blood pressure readings will be recorded at intervals of at least 1 minute). The average of the 3 blood pressure readings was recorded in the CRF. A pulse oximeter was used to measure peripheral capillary oxygen saturation (SpO2) continuously from pre-dose until 4-hours post-dose. A pulse oximeter was clipped onto the finger or foot of the subject, and light will be sent through the finger or foot and measured on the other side.
# In these tables, baseline value is defined as the last non-missing value prior to study drug administration.
# [2] = tested on: mouse model of morphine addiction; test: Mouse model of morphine addiction; type: in vivo; conditions: co-administered to mice
# [3] = tested on: CYP2B6; conditions: in vitro
# [4] = tested on: social defeat stress model in mice; conditions: cited from earlier work
# [5] = tested on: healthy volunteers; conditions: up to 1 mg/kg IV or 1.8 mg/kg intramuscular; cited from earlier work
# [6] = tested on: CYP1A2; test: In vitro CYP induction
smiles,measurement,setting,value
"CN[C@@]1(c2ccccc2Cl)CCCCC1=O.Cl [R(−)-ketamine, (2R)-2-(2-chlorophenyl)-2-(methylamino)cyclohexan-1-one]","Subjects with change from baseline diastolic blood pressure >25 mmHg, number",[1]; 30 mg,1 n
same,"Subjects with change from baseline diastolic blood pressure >25 mmHg, percent",[1]; 30 mg,3.0%
same,"Subjects with post-baseline diastolic blood pressure >110 mmHg, number",[1]; 30 mg,0 n
same,"Subjects with post-baseline diastolic blood pressure >110 mmHg, percent",[1]; 30 mg,0.0%
same,Diastolic Blood Pressure: Mean,"[1]; 30 mg, Day 1, 15 minutes",77.4 mmHg
same,Diastolic Blood Pressure: Median,"[1]; 30 mg, Day 1, 15 minutes",79.0 mmHg
same,Diastolic Blood Pressure: Mean,"[1]; 30 mg, Day 1, 40 minutes",77.7 mmHg
same,Diastolic Blood Pressure: Median,"[1]; 30 mg, Day 1, 40 minutes",81.0 mmHg
same,Diastolic Blood Pressure: Mean,"[1]; 30 mg, Day 1, 60 minutes",75.4 mmHg
same,Diastolic Blood Pressure: Median,"[1]; 30 mg, Day 1, 60 minutes",75.0 mmHg
same,Diastolic Blood Pressure: Mean,"[1]; 30 mg, Day 1, 2 hours",77.3 mmHg
same,Diastolic Blood Pressure: Median,"[1]; 30 mg, Day 1, 2 hours",78.0 mmHg
same,Diastolic Blood Pressure: Mean,"[1]; 30 mg, Day 1, 4 hours",76.1 mmHg
same,Diastolic Blood Pressure: Median,"[1]; 30 mg, Day 1, 4 hours",76.0 mmHg
same,Diastolic Blood Pressure: Mean,"[1]; 30 mg, Day 1, 6 hours",75.2 mmHg
same,Diastolic Blood Pressure: Median,"[1]; 30 mg, Day 1, 6 hours",75.0 mmHg
same,Diastolic Blood Pressure: Mean,"[1]; 30 mg, Day 2 - Discharge",74.7 mmHg
same,Diastolic Blood Pressure: Median,"[1]; 30 mg, Day 2 - Discharge",75.0 mmHg
same,Diastolic Blood Pressure: Mean,"[1]; 30 mg, Day 8",75.8 mmHg
same,Diastolic Blood Pressure: Median,"[1]; 30 mg, Day 8",78.0 mmHg
same,Diastolic Blood Pressure: Mean,"[1]; 30 mg, Day 15",78.9 mmHg
same,Diastolic Blood Pressure: Median,"[1]; 30 mg, Day 15",79.0 mmHg
same,"Diastolic Blood Pressure: Change from Baseline, Mean","[1]; 30 mg, to Day 1, 15 minutes",0.5 mmHg
same,"Diastolic Blood Pressure: Change from Baseline, Median","[1]; 30 mg, to Day 1, 15 minutes",2.0 mmHg
same,"Diastolic Blood Pressure: Change from Baseline, Mean","[1]; 30 mg, to Day 1, 40 minutes",1.0 mmHg
same,"Diastolic Blood Pressure: Change from Baseline, Median","[1]; 30 mg, to Day 1, 40 minutes",1.0 mmHg
same,"Diastolic Blood Pressure: Change from Baseline, Mean","[1]; 30 mg, to Day 1, 60 minutes",−1.2 mmHg
same,"Diastolic Blood Pressure: Change from Baseline, Median","[1]; 30 mg, to Day 1, 60 minutes",−1.5 mmHg
same,"Diastolic Blood Pressure: Change from Baseline, Mean","[1]; 30 mg, to Day 1, 2 hours",0.5 mmHg
same,"Diastolic Blood Pressure: Change from Baseline, Median","[1]; 30 mg, to Day 1, 2 hours",−1.0 mmHg
same,"Diastolic Blood Pressure: Change from Baseline, Mean","[1]; 30 mg, to Day 1, 4 hours",−0.6 mmHg
same,"Diastolic Blood Pressure: Change from Baseline, Median","[1]; 30 mg, to Day 1, 4 hours",−1.0 mmHg
same,"Diastolic Blood Pressure: Change from Baseline, Mean","[1]; 30 mg, to Day 1, 6 hours",−1.5 mmHg
same,"Diastolic Blood Pressure: Change from Baseline, Median","[1]; 30 mg, to Day 1, 6 hours",−3.0 mmHg
same,"Diastolic Blood Pressure: Change from Baseline, Mean","[1]; 30 mg, to Day 2 - Discharge",−2.0 mmHg
same,"Diastolic Blood Pressure: Change from Baseline, Median","[1]; 30 mg, to Day 2 - Discharge",−2.0 mmHg
same,"Diastolic Blood Pressure: Change from Baseline, Mean","[1]; 30 mg, to Day 8",−1.0 mmHg
same,"Diastolic Blood Pressure: Change from Baseline, Median","[1]; 30 mg, to Day 8",−1.0 mmHg
same,"Diastolic Blood Pressure: Change from Baseline, Mean","[1]; 30 mg, to Day 15",2.1 mmHg
same,"Diastolic Blood Pressure: Change from Baseline, Median","[1]; 30 mg, to Day 15",1.0 mmHg
same,"Subjects with change from baseline diastolic blood pressure >25 mmHg, number",[1]; 60 mg,1 n
same,"Subjects with change from baseline diastolic blood pressure >25 mmHg, percent",[1]; 60 mg,2.9%
same,"Subjects with post-baseline diastolic blood pressure >110 mmHg, number",[1]; 60 mg,0 n
same,"Subjects with post-baseline diastolic blood pressure >110 mmHg, percent",[1]; 60 mg,0.0%
same,Diastolic Blood Pressure: Mean,"[1]; 60 mg, Day 1, 15 minutes",78.8 mmHg
same,Diastolic Blood Pressure: Median,"[1]; 60 mg, Day 1, 15 minutes",79.5 mmHg
same,Diastolic Blood Pressure: Mean,"[1]; 60 mg, Day 1, 40 minutes",78.1 mmHg
same,Diastolic Blood Pressure: Median,"[1]; 60 mg, Day 1, 40 minutes",78.0 mmHg
same,Diastolic Blood Pressure: Mean,"[1]; 60 mg, Day 1, 60 minutes",79.5 mmHg
same,Diastolic Blood Pressure: Median,"[1]; 60 mg, Day 1, 60 minutes",77.0 mmHg
same,Diastolic Blood Pressure: Mean,"[1]; 60 mg, Day 1, 2 hours",75.7 mmHg
same,Diastolic Blood Pressure: Median,"[1]; 60 mg, Day 1, 2 hours",75.0 mmHg
same,Diastolic Blood Pressure: Mean,"[1]; 60 mg, Day 1, 4 hours",75.1 mmHg
same,Diastolic Blood Pressure: Median,"[1]; 60 mg, Day 1, 4 hours",74.0 mmHg
same,Diastolic Blood Pressure: Mean,"[1]; 60 mg, Day 1, 6 hours",75.8 mmHg
same,Diastolic Blood Pressure: Median,"[1]; 60 mg, Day 1, 6 hours",76.5 mmHg
same,Diastolic Blood Pressure: Mean,"[1]; 60 mg, Day 2 - Discharge",77.2 mmHg
same,Diastolic Blood Pressure: Median,"[1]; 60 mg, Day 2 - Discharge",77.0 mmHg
same,Diastolic Blood Pressure: Mean,"[1]; 60 mg, Day 8",78.7 mmHg
same,Diastolic Blood Pressure: Median,"[1]; 60 mg, Day 8",78.0 mmHg
same,Diastolic Blood Pressure: Mean,"[1]; 60 mg, Day 15",77.5 mmHg
same,Diastolic Blood Pressure: Median,"[1]; 60 mg, Day 15",78.0 mmHg
same,"Diastolic Blood Pressure: Change from Baseline, Mean","[1]; 60 mg, to Day 1, 15 minutes",2.2 mmHg
same,"Diastolic Blood Pressure: Change from Baseline, Median","[1]; 60 mg, to Day 1, 15 minutes",1.5 mmHg
same,"Diastolic Blood Pressure: Change from Baseline, Mean","[1]; 60 mg, to Day 1, 40 minutes",2.4 mmHg
same,"Diastolic Blood Pressure: Change from Baseline, Median","[1]; 60 mg, to Day 1, 40 minutes",2.0 mmHg
same,"Diastolic Blood Pressure: Change from Baseline, Mean","[1]; 60 mg, to Day 1, 60 minutes",3.2 mmHg
same,"Diastolic Blood Pressure: Change from Baseline, Median","[1]; 60 mg, to Day 1, 60 minutes",4.0 mmHg
same,"Diastolic Blood Pressure: Change from Baseline, Mean","[1]; 60 mg, to Day 1, 2 hours",−0.1 mmHg
same,"Diastolic Blood Pressure: Change from Baseline, Median","[1]; 60 mg, to Day 1, 2 hours",0.0 mmHg
same,"Diastolic Blood Pressure: Change from Baseline, Mean","[1]; 60 mg, to Day 1, 4 hours",−0.6 mmHg
same,"Diastolic Blood Pressure: Change from Baseline, Median","[1]; 60 mg, to Day 1, 4 hours",0.0 mmHg
same,"Diastolic Blood Pressure: Change from Baseline, Mean","[1]; 60 mg, to Day 1, 6 hours",−0.0 mmHg
same,"Diastolic Blood Pressure: Change from Baseline, Median","[1]; 60 mg, to Day 1, 6 hours",−1.0 mmHg
same,"Diastolic Blood Pressure: Change from Baseline, Mean","[1]; 60 mg, to Day 2 - Discharge",1.5 mmHg
same,"Diastolic Blood Pressure: Change from Baseline, Median","[1]; 60 mg, to Day 2 - Discharge",1.0 mmHg
same,"Diastolic Blood Pressure: Change from Baseline, Mean","[1]; 60 mg, to Day 8",3.0 mmHg
same,"Diastolic Blood Pressure: Change from Baseline, Median","[1]; 60 mg, to Day 8",3.0 mmHg
same,"Diastolic Blood Pressure: Change from Baseline, Mean","[1]; 60 mg, to Day 15",1.7 mmHg
same,"Diastolic Blood Pressure: Change from Baseline, Median","[1]; 60 mg, to Day 15",1.0 mmHg
same,Effect on the addictive properties of morphine,[2],significantly attenuated the addictive properties of morphine
same,CYP2B6 induction,[3],inducer
same,Anti-depressant effects,[4],more potent and long lasting anti-depressant effects when compared to S(+)-ketamine
same,Psychotomimetic and dissociative-like effects compared with S(+)-ketamine,[5],less pronounced psychotomimetic and dissociative-like effects
same,CYP1A2 induction,[6],inducer
